{"source": "patent US20150175655A1", "about": "(priority 2012, published 2015)", "note": "pKi: −log10 of the molar value.", "data": [{"target": "T1, NS3 genotype 3a protease (UniProt Q81258)", "T1 construct": "Purified NS3 protease domain (amino acids 1-181) of the genotype 1b and 3a virus were generated as above; fused on or other part: N-terminal hexahistidine tag and rTEV protease cleavage site (vector p28-N6H-Tev-NS3(181)3)", "T1 sequence (Q81258 1033-1663)": "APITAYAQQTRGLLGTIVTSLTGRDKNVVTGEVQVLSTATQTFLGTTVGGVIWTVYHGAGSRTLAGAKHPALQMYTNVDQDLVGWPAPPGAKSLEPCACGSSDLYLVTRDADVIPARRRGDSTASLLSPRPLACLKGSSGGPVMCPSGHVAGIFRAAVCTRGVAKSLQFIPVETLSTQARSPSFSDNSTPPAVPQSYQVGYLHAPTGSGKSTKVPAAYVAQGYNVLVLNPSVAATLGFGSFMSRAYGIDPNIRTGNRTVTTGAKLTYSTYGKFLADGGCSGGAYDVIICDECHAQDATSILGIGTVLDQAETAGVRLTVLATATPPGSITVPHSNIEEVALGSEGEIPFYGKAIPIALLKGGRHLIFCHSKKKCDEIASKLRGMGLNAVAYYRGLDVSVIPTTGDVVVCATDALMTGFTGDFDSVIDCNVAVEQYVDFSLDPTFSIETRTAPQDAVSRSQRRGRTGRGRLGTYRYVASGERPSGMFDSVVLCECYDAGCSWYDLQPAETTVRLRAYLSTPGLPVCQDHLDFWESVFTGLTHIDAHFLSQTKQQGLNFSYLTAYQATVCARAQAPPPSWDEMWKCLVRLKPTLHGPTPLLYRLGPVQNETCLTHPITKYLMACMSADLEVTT", "assay": "Ki determination, NS3 protease genotype 3a (fluorogenic depsipeptide substrate)", "type": "biochemical, hepatitis C virus", "conditions": "200 pM enzyme, 20 μM NS4A peptide, 2 μM substrate, read-out: Ki 3A", "excerpt": "(§1) The coding sequences for the genotype 3 HCV protease domain was amplified by RT-PCR using a Titan One Tube RT-PCR Kit (Roche, Indianapolis, Ind.) and RNA extracted from HCV-positive human serum (BBI Diagnostics, MA) using a QIAmp UltraSens Virus Kit (Qiagen, Valencia, Calif.). 5′ PCR primers were designed to encode N-terminal hexahistidine tags and to insert in-frame rTEV protease cleavage sites into the NS3 protease coding sequences. The resulting DNA fragments were cloned into pET28 yielding the expression vectors p28-N6H-Tev-NS3(181)1a and p28-N6H-Tev-NS3(181)3, respectively.\n(§2) BL21AI bacteria (Invitrogen, Carlsbad, Calif.) were transformed with genotype 1b or 3 NS3 expression vectors and used to inoculate a 20 L fermentation vessel (Sartorius BBI System Inc., Bethlehem, Pa.), containing 18 L of fresh 2YT medium supplemented with 50 μg/mL kanamycin. When cell densities reached an OD600 of 1, the temperature of the cultures was reduced from 37° C. to 28° C. and induction was immediately initiated by the addition of 30 μM ZnSO4, 14 mM L-arabinose and 1 mM Isopropyl β-D-thiogalactoside (IPTG) final concentrations. Cells were harvested by centrifugation four hours post-induction and were stored as frozen pellets at −80° C. prior to NS3 protein purification.\n(§3) Bacterial pellets collected from the expression of genotype 3 HCV NS3 protease were homogenized in Lysis Buffer (25 mM tris, pH 7.5 buffer containing 150 mM NaCl and 1 mM phenylmethanesulfonyl fluoride (PMSF)) and passed through a microfluidizer at 18,000 pounds/in^2. Homogenized cell lysates were centrifuged at 30,000×g for 30 minutes at 4° C. The resulting P1 pellets were washed with Wash Buffer I (25 mM tris, pH 7.5 containing 1% CHAPS) followed by centrifugation at 10,000×g for 30 minutes at 4° C. […] The resulting P3 pellets were resuspended in Solubilization Buffer (20 ml of 25 mM tris, pH 7.5 containing 150 mM NaCl and 8 M urea) and incubated at 4° C. for one hour. Solubilized proteins were passed through a 0.45 micron filter. Protein concentrations were measured and the solutions were adjusted to 40 mM DTT, incubated for 30 minutes at 4° C. and then quickly diluted into Refolding Buffer (25 mM tris, pH 8.5, 0.8 M Guanidine-HCl, 0.4 M L-Arginine, 10 mM ZnSO4) while stirring. Protein solutions were incubated at 4° C. overnight to allow refolding. Refolded proteases were centrifuged at 30,000×g for 10 minutes to remove residual precipitates. Final protein concentrations were then measured and the NS3 proteases were aliquoted, snap frozen in liquid nitrogen and stored at −80° C.\n(§4) Purified NS3 protease domain (amino acids 1-181) of the genotype 1b and 3a virus were generated as above. The internally quenched fluorogenic depsipeptide substrate Ac-DED(Edans)-EEAbuψ[COO]ASK(Dabcyl)-NH2 and a synthetic peptide containing the hydrophobic core residues of the NS4A protein cofactor ([…]; NS4A peptide) were obtained from Anaspec, Inc. (San Jose, Calif.). Other chemicals and biochemicals were of reagent grade or better and were purchased from standard suppliers.\n(§5) Reactions were run at room temperature in buffer consisting of 50 mM HEPES, 40% glycerol, 0.05% Triton X-100, 10 mM DTT, and 10% DMSO. The final assay solutions contained 50 pM NS3 genotype 1b protease or 200 pM genotype 3a protease, 20 μM NS4A peptide, and 4 μM substrate (genotype 1 b) or 2 μM substrate (genotype 3a). Inhibitor concentrations varied from 100 nM to 5 pM in 3-fold dilutions, and no-inhibitor controls were included.\n(§6) Compound dilutions were made in DMSO at 20× final concentration. Reaction mixtures were prepared in 96-well assay plates. A solution of enzyme and NS4A peptide in assay buffer (25 μL volume with both reagents at 4× final concentration) was mixed with 45 μL assay buffer and 5 μL of either inhibitor or DMSO, and pre-incubated at room temperature for 1 hour. The reaction was started by addition of 25 μL substrate solution at 4× final concentration. […]", "values": [{"smiles": "CC[C@@H]1[C@@H]2CN(C(=O)[C@H](C(C)(C)C)NC(=O)O[C@@H]3C[C@H]3CCCCCc3nc4ccc(OC)cc4nc3O2)[C@@H]1C(=O)N[C@]1(C(=O)NS(=O)(=O)C2CC2)C[C@H]1C(F)F", "note": "[Example 2, (1aR,5S,8S,9S,10R,22aR)-5-tert-butyl-N-[(1R,2R)-1-[(cyclopropylsulfonyl)carbamoyl]-2-(difluoromethyl)cyclopropyl]-9-ethyl-14-methoxy-3,6-dioxo-1,1a,3,4,5,6,9,10,18,19,20,21,22,22a-tetradecahydro-8H-7,10-methanocyclopropa[18,19][1,10,3,6]dioxadiazacyclononadecino[11,12-b]quinoxaline-8-carboxamide]", "pKi": 10.40}, {"smiles": "CC[C@@H]1[C@@H]2CN(C(=O)[C@H](C(C)(C)C)NC(=O)O[C@@H]3C[C@H]3CCCCCc3nc4ccc(OC)cc4nc3O2)[C@@H]1C(=O)N[C@]1(C(=O)NS(=O)(=O)C2CC2)C[C@H]1CC", "note": "[Example 3, (1aR,5S,8S,9S,10R,22aR)-5-tert-butyl-N-{(1R,2R)-1-[(cyclopropylsulfonyl)carbamoyl]-2-ethylcyclopropyl}-9-ethyl-14-methoxy-3,6-dioxo-1,1a,3,4,5,6,9,10,18,19,20,21,22,22a-tetradecahydro-8H-7,10-methanocyclopropa[18,19][1,10,3,6]dioxadiazacyclononadecino[11,12-b]quinoxaline-8-carboxamide]", "pKi": 9.25}, {"smiles": "CC[C@@H]1[C@@H]2CN(C(=O)[C@H](C(C)(C)C)NC(=O)O[C@@H]3C[C@H]3CCCCCc3nc4ccc(OC)cc4nc3O2)[C@@H]1C(=O)N[C@]1(C(=O)NS(=O)(=O)C2(C)CC2)C[C@H]1CC", "note": "[Example 4, (1aR,5S,8S,9S,10R,22aR)-5-tert-butyl-9-ethyl-N-[(1R,2R)-2-ethyl-1-{[(1-methylcyclopropyl)sulfonyl]carbamoyl}cyclopropyl]-14-methoxy-3,6-dioxo-1,1a,3,4,5,6,9,10,18,19,20,21,22,22a-tetradecahydro-8H-7,10-methanocyclopropa[18,19][1,10,3,6]dioxadiazacyclononadecino[11,12-b]quinoxaline-8-carboxamide]", "pKi": 9.25}, {"smiles": "CC[C@@H]1[C@@H]2CN(C(=O)[C@H](C(C)(C)C)NC(=O)O[C@@H]3CCC[C@H]3CCCCCc3nc4ccc(OC)cc4nc3O2)[C@@H]1C(=O)N[C@]1(C(=O)NS(=O)(=O)C2(C)CC2)C[C@H]1C(F)F", "note": "[Example 6, (3aR,7S,10S,11S,12R,24aR)-7-tert-butyl-N-[(1R,2R)-2-(difluoromethyl)-1-{[(1-methylcyclopropyl)sulfonyl]carbamoyl}cyclopropyl]-11-ethyl-16-methoxy-5,8-dioxo-1,2,3,3a,5,6,7,8,11,12,20,21,22,23,24,24a-hexadecahydro-10H-9,12-methanocyclopenta[18,19][1,10,3,6]dioxadiazacyclononadecino[11,12-b]quinoxaline-10-carboxamide]", "pKi": 9.21}, {"smiles": "CC[C@@H]1[C@@H]2CN(C(=O)[C@H](C(C)(C)C)NC(=O)O[C@@]3(C)C[C@@H]3CCCCCc3nc4ccc(OC)cc4nc3O2)[C@@H]1C(=O)N[C@]1(C(=O)NS(=O)(=O)C2(C)CC2)C[C@H]1C(F)F", "note": "[Example 8, (1aS,5S,8S,9S,10R,22aS)-5-tert-butyl-N-[(1R,2R)-2-(difluoromethyl)-1-{[(1-methylcyclopropyl)sulfonyl]carbamoyl}cyclopropyl]-9-ethyl-14-methoxy-1a-methyl-3,6-dioxo-1,1a,3,4,5,6,9,10,18,19,20,21,22,22a-tetradecahydro-8H-7,10-methanocyclopropa[18,19][1,10,3,6]dioxadiazacyclononadecino[11,12-b]quinoxaline-8-carboxamide]", "pKi": 9.38}]}, {"target": "T1, NS3 genotype 3a protease", "assay": "Ki determination, NS3 protease genotype 3a (fluorogenic depsipeptide substrate)", "type": "biochemical, hepatitis C virus", "conditions": "read-out: Ki 3A, […] pM enzyme, 20 μM NS4A peptide, 2 μM substrate", "excerpt": "as §1, §2, §3, §4, §5, §6", "values": [{"smiles": "CC[C@@H]1[C@@H]2CN(C(=O)[C@H](C3CCCC3)NC(=O)O[C@@H]3C[C@H]3CCCCCc3nc4ccc(OC)cc4nc3O2)[C@@H]1C(=O)N[C@]1(C(=O)NS(=O)(=O)C2CC2)C[C@H]1C(F)F", "note": "[Example 15, (1aR,5S,8S,9S,10R,22aR)-5-cyclopentyl-N-[(1R,2R)-1-[(cyclopropylsulfonyl)carbamoyl]-2-(difluoromethyl)cyclopropyl]-9-ethyl-14-methoxy-3,6-dioxo-1,1a,3,4,5,6,9,10,18,19,20,21,22,22a-tetradecahydro-8H-7,10-methanocyclopropa[18,19][1,10,3,6]dioxadiazacyclononadecino[11,12-b]quinoxaline-8-carboxamide]", "pKi": 9.52}, {"smiles": "COc1ccc2nc3c(nc2c1)O[C@H]1CN(C(=O)[C@H](C(C)(C)C)NC(=O)O[C@@H]2C[C@H]2CCCCC3)[C@H](C(=O)N[C@]2(C(=O)NS(=O)(=O)C3CC3)C[C@H]2C(F)F)[C@@H]1C", "note": "[Example 19, (1aR,5S,8S,9S,10R,22aR)-5-tert-butyl-N-[(1R,2R)-1-[(cyclopropylsulfonyl)carbamoyl]-2-(difluoromethyl)cyclopropyl]-14-methoxy-9-methyl-3,6-dioxo-1,1a,3,4,5,6,9,10,18,19,20,21,22,22a-tetradecahydro-8H-7,10-methanocyclopropa[18,19][1,10,3,6]dioxadiazacyclononadecino[11,12-b]quinoxaline-8-carboxamide]", "pKi": 9.89}, {"smiles": "CC[C@@H]1C[C@]1(NC(=O)[C@@H]1[C@H](C)[C@@H]2CN1C(=O)[C@H](C(C)(C)C)NC(=O)O[C@@H]1C[C@H]1CCCCCc1nc3ccc(OC)cc3nc1O2)C(=O)NS(=O)(=O)C1CC1", "note": "[Example 20, (1aR,5S,8S,9S,10R,22aR)-5-tert-butyl-N-{(1R,2R)-1-[(cyclopropylsulfonyl)carbamoyl]-2-ethylcyclopropyl}-14-methoxy-9-methyl-3,6-dioxo-1,1a,3,4,5,6,9,10,18,19,20,21,22,22a-tetradecahydro-8H-7,10-methanocyclopropa[18,19][1,10,3,6]dioxadiazacyclononadecino[11,12-b]quinoxaline-8-carboxamide]", "pKi": 9.28}, {"smiles": "CC[C@@H]1C[C@]1(NC(=O)[C@@H]1[C@H](C)[C@@H]2CN1C(=O)[C@H](C(C)(C)C)NC(=O)O[C@@H]1C[C@H]1CCCCCc1nc3ccc(OC)cc3nc1O2)C(=O)NS(=O)(=O)C1(C)CC1", "note": "[Example 21, (1aR,5S,8S,9S,10R,22aR)-5-tert-butyl-N-[(1R,2R)-2-ethyl-1-{[(1-methylcyclopropyl)sulfonyl]carbamoyl}cyclopropyl]-14-methoxy-9-methyl-3,6-dioxo-1,1a,3,4,5,6,9,10,18,19,20,21,22,22a-tetradecahydro-8H-7,10-methanocyclopropa[18,19][1,10,3,6]dioxadiazacyclononadecino[11,12-b]quinoxaline-8-carboxamide]", "pKi": 9.35}]}]}
